Data: patent US8466273B2, “Hepatitis C virus inhibitors” (priority 2008, dated 2013)

Experiments:
[1] = tested on: HCV replication in R6FLR-N cells; assay: HCV replication activity by luciferase assay in R6FLR-N replicon cells; type: cell-based, Hepatitis C virus (genotype 1b); details: for replication of HCV (luminescence relative to control siRNA group defined as 100%): 4.2 nM siRNA, 72 hours post-treatment; for minimal effective concentration showing a significant inhibitory effect against HCV replication vs. the control siRNAs: data not shown
Source text: The inhibitory effect against HCV replication can be determined by using HCV replicon cells (Lohmann et al., Science, 1999, 285 (5424):110-113). HCV replicon cells bear a luciferase gene as an indicator gene fused to a nonstructural protein (NS) region necessary for the replication of HCV. HCV replication activity can be measured by luciferase assays. Viral inhibitory activity can also be evaluated by using HCV infection systems (Wakita et al., Nat. Med. 2005, 11 (7), 791-796).
In this study, HCV-replicating cells (FLR3-1 and R6FLR-N) established from Huh-7 replicon cells (Lohmann et al., Science, 1999, 285 (5424):110-3) containing a luciferase-neo fusion gene and three HCV nonstructural protein regions (NS3-NS5b) after G418 selection were used. The use of these cells allows HCV replication activity to be measured by a luciferase assay. The HCV-replicating cells (FLR3-1 or R6FLR-N) were reverted by treatment with interferon α (100 IU/ml) for 72 hours or more to lower the HCV replication level and used as control cells (see Guo J T, Bichko V V, Seeger C., J. Virol. 2001, 75 (18):8516-23). The cells were incubated in Dulbecco's modified Eagle's medium (DMEM) GlutaMax I containing penicillin (100 U/ml), streptomycin (100 μg/ml), G418 (500 μg/ml), and 10% FCS (SIGMA).
The reverse transfection of the siRNAs was performed as follows. In each well of a 96-well plate (Falcon) containing Opti-MEM I medium was added each siRNA at a final concentration of 4.2, 12.6, and 25.2 nM and the plate was gently shaken. Lipofectamine™ RNAiMAX was mixed before use and added to the well (0.1 μl/well), and the plate was gently shaken and allowed to stand for 10-20 minutes at room temperature. R6FLR-N cells were plated at a density of 5×10^3 cells/well and incubated at 37° C. in 5% CO2 for 5 hours. The culture medium was replaced with 10% DMEM-Glutamax, and the cells were further incubated at 37° C. in 5% CO2. A plate containing the medium and Lipofectamine alone without siRNA (“Lipo”) and a plate containing the medium alone (“No”) were used as controls.
After incubation for 24, 48, and 72 hours, the HCV replication activity was measured by a luciferase assay. The replication activity is expressed relative to the luminescence intensity in the groups treated with the control siRNAs (“Ctrl”) defined as 100%. The experiment was performed in triplicate, and the average±S.D. was graphically shown. Statistical analysis was performed by Student's t-test.
FLR3-1 cells and R6FLR-N cells were incubated with a rabbit anti-BGT-1 polyclonal antibody (abcam) or a mouse anti-AKR1C1 polyclonal antibody (Abnova) for 72 hours. After incubation, the relative luminescence unit (RLU) was measured by a luciferase assay to evaluate the inhibitory activity against HCV replication. Normal rabbit serum was used as a control of the anti-BGT-1 antibody, and normal mouse serum was used as a control of the anti-AKR1C1 antibody. Each antibody was diluted at 1:100-1:10000 in 3% BSA/PBS. The experiment was performed in triplicate, and the average±S.D. was graphically shown. Statistical analysis was performed by Student's t-test.
R6FLR-N cells were also incubated with another BGT-1 inhibitor NNC05-2090 for 24-72 hours, and then analyzed by a luciferase assay in the same manner. NNC05-2090 was dissolved in DMSO at a final concentration of 0.1-10 μM (FIG. 7).

R6FLR-N cells = assay: Cytotoxic activity against HCV-replicating cells (Cell Counting Kit-8 / WST), R6FLR-N; type: cell-based
Method: In the same manner as described above, the siRNA were reversely transfected into R6FLR-N cells in a 96-well plate (Falcon). After incubation for 24, 48, and 72 hours, the number of viable cells was counted by a chromogenic reaction at 37° C. for 1 hour using Cell Counting Kit-8 (DOJINDO) following the manufacturer's protocol. The results are expressed relative to the cell survival rate in the groups treated with the control siRNAs defined as 100%. The experiment was performed in triplicate, and the average±S.D. was graphically shown. Statistical analysis was performed by Student's t-test.
FLR3-1 cells and R6FLR-N cells were incubated with the rabbit anti-BGT-1 polyclonal antibody or mouse anti-AKR1C1 polyclonal antibody described above for 72 hours. After incubation, the OD450/650 was measured by a chromogenic reaction at 37° C. for 1 hour using Cell Counting Kit-8 (DOJINDO) following the manufacturer's protocol. Normal rabbit serum was used as a control of the anti-BGT-1 antibody, and normal mouse serum was used as a control of the anti-AKR1C1 antibody. Each antibody was diluted at 1:100-1:10000 in 3% BSA/PBS. The experiment was performed in triplicate, and the average±S.D. was graphically shown. Statistical analysis was performed by Student's t-test.
(§1) In the same manner as described above, the cytotoxic activity of tiagabine (1 mM), NNC05-2090 (0.1-10 μM), and flufenamic acid (1 μM-1 mM) against HCV-replicating cells was evaluated by the WST assay. The experiment was performed in triplicate, and the average±S.D. was graphically shown. Statistical analysis was performed by Student's t-test.

[2] = tested on: FLR3-1, R6FLR-N and JFH1 cells; assay: Cytotoxic activity of inhibitors by WST assay in FLR3-1, R6FLR-N and JFH1 cells; type: cell-based
Method: HCV-replicating cells were incubated with a BGT-1 inhibitor tiagabine or an AKR1C1 inhibitor flufenamic acid, and the inhibitory effect against HCV replication was evaluated by a luciferase assay. Tiagabine was dissolved in sterile distilled water at a final concentration of 1 mM, and flufenamic acid was dissolved in 1% EtOH at a final concentration of 1 μM-1 mM. The assay was performed after a reaction period of 24 hours in expectation of the rapid action of the inhibitors. The HCV-replicating cells used were FLR3-1, R6FLR-N (both genotype 1b) and JFH1 (genotype 2a: Kato et al., Gastroenterology, 2003, 125 (6):1808-17). The cells incubated in the medium alone were used as “controls”. The experiment was performed in triplicate, and the average±S.D. was graphically shown. Statistical analysis was performed by Student's t-test.
as §1

AKR1C1 gene = assay: Inhibition of AKR1C1 gene expression by siRNA, RT-PCR; type: cell-based, Homo sapiens; details: data not shown
Method: (§2) The expression of BGT-1 and AKR1C1 and the inhibition of the expression by their siRNAs were analyzed by Western blotting and PCR.
(§3) The inhibition of the expression of the BGT-1 gene and the AKR1C1 gene by their siRNAs was also verified by RT-PCR using the following primers (data not shown): […]

BGT-1 gene = assay: Inhibition of BGT-1 gene expression by siRNA, RT-PCR; type: cell-based, Homo sapiens; details: data not shown
Method: as §2, §3

## COc1ccccc1C1(O)CCN(CCCn2c3ccccc3c3ccccc32)CC1 [NNC05-2090, 1-(3-(9H-carbazol-9-yl)-1-propyl)-4-(2-methoxyphenyl)-4-piperidinol, reference compound]
[1]; 10 μM, 24 hours, R6FLR-N cells
  RLU vs. the vehicle group (DMSO): 30%
R6FLR-N cells; 3 μM, 48 hours post-treatment
  OD value as % of the vehicle group (WST assay): about 26%
R6FLR-N cells; 10 μM, 24 hours post-treatment
  OD value as % of the vehicle group (WST assay): about 23%

## O=C(O)c1ccccc1Nc1cccc(C(F)(F)F)c1 [flufenamic acid]
[2]; 100 μM, all types of HCV-replicating cells
  OD value as % of the value of the 0 μM group (WST assay): ≤ 80%

## Cc1ccsc1C(=CCCN1CCC[C@@H](C(=O)O)C1)c1sccc1C [tiagabine]
[2]; 1 mM, 24 hours, FLR3-1, R6FLR-N, JFH1 cells
  cytotoxic activity against HCV-replicating cells (WST assay): significantly injured HCV-replicating cells in only FLR3-1 cells

## siRNA of AKR1C1: siRNA of the AKR1C1 gene, 5′-AAGUAAAGCUUUAGAGGCCACCAAA-3′, nucleotides 93-117 (chemistry not given here)
[1]; R6FLR-N cells
  replication of HCV (luminescence relative to control siRNA group defined as 100%): 40±1%
[1]
  minimal effective concentration showing a significant inhibitory effect against HCV replication vs. the control siRNAs: 0.5 nM
R6FLR-N cells; 4.2 nM siRNA, 72 hours post-treatment
  cell survival rate (relative to control siRNA group defined as 100%): 53±18%
AKR1C1 gene
  inhibition of the expression of the AKR1C1 gene by RT-PCR: verified

## siRNA of BGT-1: siRNA of the BGT-1 gene, 5′-CAACAAGAUGGAGUUUGUGCUGUCA-3′, nucleotides 120-144 (chemistry not given here)
BGT-1 gene
  inhibition of the expression of the BGT-1 gene by RT-PCR: verified
[1]; R6FLR-N cells
  replication of HCV (luminescence relative to control siRNA group defined as 100%): ≤ 10±4%
[1]
  minimal effective concentration showing a significant inhibitory effect against HCV replication vs. the control siRNAs: 0.5 nM
R6FLR-N cells; any siRNA concentration tested (4.2, 12.6, 25.2 nM)
  cytotoxic activity against HCV-replicating cells: any significant cytotoxic activity was not detected
